Where “and” joins values, the source holds several entries; their conditions need not be identical. Identical values can stand only once. Like-named read-outs stand apart in the source and are kept apart here.
Columns and labels:
[1] = Blood and brain collection after forced swim test (total brain-to-plasma ratio); type: in vivo; conditions: CD-1, brain and plasma, mouse, immediately following the forced swim test, read-out: total brain-to-plasma ratio (B/P ratio)
Description: Blood and Brain Collection: Immediately following the forced swim test, all animals dosed with test article were anesthetized with isoflurane inhalant, and terminal blood collection (˜1 ml) was performed via cardiac puncture into potassium EDTA blood collection tubes (SOP ROD.14.02). Plasma was isolated from whole blood by centrifugation at 3000 rpm at 4° C. for 5 minutes. Once isolated, plasma was placed in cryovials and frozen at −80° C. until shipment for bioanalysis. Following blood collection, animals were decapitated and the whole brain collected as per standard operating procedure (SOP ROD.59). Brains were weighed, flash frozen, and stored at −80° C. until shipment.

male CD-1 mice = test: Mouse forced swim test; type: in vivo; conditions: for Latency to Immobility / Time Immobile 0-2 min / Time Immobile 0-6 min / Time Immobile 2-6 min: 30 min pretreatment, individual animals; for Latency to Immobility, Average / Time Immobile 0-2 min, Average / Time Immobile 0-6 min, Average / Time Immobile 2-6 min, Average: group average N = 10
Description: Objective: A study was performed to assess the potential efficacy of Compound A using the mouse forced swim test. The forced swim test is a model of behavioral despair, and is sensitive to detection of various classes of antidepressant drugs (Can et al., The Mouse Forced Swim Test. J. Vis. Exp. 2012 (59), e3638, DOI:10.3791/3638). Study Design: Forty (40) male CD-1 mice received a 1-week period of acclimation to the test facility prior to the commencement of testing (events summarized in Table 1). […] All animal use procedures were performed in accordance with the principles of the Canadian Council on Animal Care (CCAC). Formulation of Compound A: Compound A (99.4% pure) was weighed (no correction for purity) and dissolved in DMSO at 20× the intended final concentration. The 20×DMSO stock solution of Compound A was diluted 20 fold with 0.5% methyl cellulose in water to achieve the final desired concentration. […] The above formulation was kept at room temperature and stirred continuously or vortex mixed prior to each dose administration. Forced swim test: Forty (40) male CD-1 mice received the appropriate dose of the vehicle, test article, or positive control (treatments summarized in Table 3). Following a pre-determined pre-treatment time (Can et al., 2012), animals were gently placed into tall glass cylinders filled with water (20-25° C.). […] The swim test involved scoring the duration of immobility. Over a 6-minute test session, the latency to first immobility was recorded (in seconds). […] Statistical Analysis: The results in Table 4 were tested for significance using T-, univariate, and Dunnett's tests as shown in Tables 5-14.

Cc1cc(N2CCc3cc(F)ccc3C2)cc(C)c1NC(=O)CC(C)(C)C [Compound A, N-[4-(6-fluoro-3,4-dihydro-1H-isoquinolin-2-yl)-2,6-dimethylphenyl]-3,3-dimethylbutanamide]
Kp at 36 min ([1]; 1 mg/kg IP): 2.2 | Kp at 36 min ([1]; 3 mg/kg IP): 2.2 | Latency to Immobility (male CD-1 mice; Compound A 1 mg/kg IP): 77 s and 84 s and 206 s and 100 s and 70 s and 109 s and 144 s and 105 s and 130 s and 80 s | Time Immobile 0-2 min (male CD-1 mice; Compound A 1 mg/kg IP): 32 sec and 28 sec and 0 sec (3×) and 16 sec and 20 sec (2×) and 4 sec and 7 sec | Time Immobile 0-6 min (male CD-1 mice; Compound A 1 mg/kg IP): 174 s and 198 s and 33 s and 125 s and 169 s and 196 s and 134 s and 141 s and 170 s | Time Immobile 2-6 min (male CD-1 mice; Compound A 1 mg/kg IP): 142 s and 170 s and 33 s and 109 s and 149 s and 192 s and 134 s and 189 s and 141 s and 150 s | Latency to Immobility, Average (male CD-1 mice; Compound A 1 mg/kg IP): 110.5 s | Time Immobile 0-2 min, Average (male CD-1 mice; Compound A 1 mg/kg IP): 12.7 s | Time Immobile 0-6 min, Average (male CD-1 mice; Compound A 1 mg/kg IP): 153.6 s | Time Immobile 2-6 min, Average (male CD-1 mice; Compound A 1 mg/kg IP): 140.9 s | Latency to Immobility (male CD-1 mice; Compound A 3 mg/kg IP): 135 s and 165 s and 155 s and 86 s and 150 s and 127 s and 192 s and 162 s and 83 s and 105 s | Time Immobile 0-2 min (male CD-1 mice; Compound A 3 mg/kg IP): 0 sec (7×) and 23 sec and 21 sec and 15 sec | Time Immobile 0-6 min (male CD-1 mice; Compound A 3 mg/kg IP): 166 s and 144 s and 122 s and 207 s and 82 s and 146 s and 101 s and 90 s and 184 s and 181 s | Time Immobile 2-6 min (male CD-1 mice; Compound A 3 mg/kg IP): 166 s and 144 s and 122 s and 184 s and 82 s and 146 s and 101 s and 90 s and 163 s | Latency to Immobility, Average (male CD-1 mice; Compound A 3 mg/kg IP): 136.0 s | Time Immobile 0-2 min, Average (male CD-1 mice; Compound A 3 mg/kg IP): 5.9 s | Time Immobile 0-6 min, Average (male CD-1 mice; Compound A 3 mg/kg IP): 142.3 s | Time Immobile 2-6 min, Average (male CD-1 mice; Compound A 3 mg/kg IP): 136.4 s | effect in the mouse forced swim test model (in words) (male CD-1 mice; Tables 5-13): statistically significant effects
